Experimental data as given in article PMC7485140 (Clinical Pharmacology and Therapeutics, 2020).
Where two headings read alike, the source gives them in different places. Starred links: 1 amine or outer side, 2 acyl side, 3 side chain; linkers in the order of their positions; H or OH if unused. Positions of bridges follow the written chain, without caps; N, C: chain ends. Non-standard residues stand in square brackets, D forms with d. Residues, ends and D or L forms follow the SMILES beside them. *: point of attachment. pTerphenylCO(4''-OnC5H11) = CCCCCOc1ccc(-c2ccc(-c3ccc(C(=O)*)cc3)cc2)cc1; Orn(4R-OH,5R-OH) = O=C([C@H](C[C@@H](O)[C@@H](O)N[*:3])N[*:1])[*:2]; hTyr(3S-OH,4S-OH) = N[C@H](C(=O)O)[C@H](O)[C@@H](O)c1ccc(O)cc1; Pro(3S-OH,4S-Me) = C[C@H]1CN[C@H](C(=O)O)[C@H]1O; Hyp = O=C(O)[C@@H]1C[C@@H](O)CN1

What was measured:
[1] = cited from earlier work
[2] = Pooled population PK analysis of i.v. anidulafungin; assay type: in vivo, human; conditions: patients aged 1 month to < 2 years, n = 23, i.v. LD/MD 3.0/1.5 mg/kg q.d., weight-corrected, final PK model; for Vd: Vss
[3] = adult patients with serious fungal infections; cited from earlier work
[4] = cited from earlier work; remark: listed apart in the source
[5] = infant patients at high risk for invasive fungal infections
[6] = neonatal patients at high risk for invasive fungal infections

For `CCCCCOc1ccc(-c2ccc(-c3ccc(C(=O)N[C@H]4C[C@@H](O)[C@@H](O)NC(=O)[C@@H]5[C@@H](O)[C@@H](C)CN5C(=O)[C@H]([C@@H](C)O)NC(=O)[C@H]([C@H](O)[C@@H](O)c5ccc(O)cc5)NC(=O)[C@@H]5C[C@@H](O)CN5C(=O)[C@H]([C@@H](C)O)NC4=O)cc3)cc2)cc1` [anidulafungin] ({pTerphenylCO(4''-OnC5H11)}-[Orn(4R-OH,5R-OH)]T[Hyp][hTyr(3S-OH,4S-OH)]T[Pro(3S-OH,4S-Me)]; lactam 1-C), which “mean CL” value [1, 5] is on record?
Its value is 0.25 mL/min/kg.

And the “mean Vss” value [1, 5]?
The value was 0.9 L/kg.

And the “median AUCss” value [1, 5]?
The value was 97700 ng·h/mL.

And the “mean CL” value [1, 6]?
The value was 0.333 mL/min/kg.

What about the “mean Vss” value [1, 6] of the same compound?
The value was 1.7 L/kg.

And the “median AUCss” value [1, 6]?
Its value is 74900 ng·h/mL.

And the clearance ([2]; human, plasma, iv, CL, Mean (SD), SD)?
The clearance was 0.35 mL/min/kg.

And the Vd ([2]; human, plasma, iv, Mean (SD), SD)?
The Vd was 0.77 L/kg.

And the Vd ([2]; human, plasma, iv, Median (range))?
Its Vd is 0.75 L/kg.

And the “CL, Median (range)” value [2]?
The value was 0.021 (0.006–0.032) L/hour/kg.

What about the “mean CL” value [3] of the same compound?
Its value is 1.0 L/h.

What about the “chemical stability in blood” value ([4]; blood at physiologic temperature and pH) of the same compound?
Its value is “slow chemical degradation”.

And the hepatic metabolism [4]?
The hepatic metabolism was “not metabolized by the liver”.

What about the “renal CL” value ([4]; negligible renal clearance) of the same compound?
The value was under 1%.
